Results: patent publication US20210255193A1, “LYSINE REACTIVE PROBES AND USES THEREOF” (The Scripps Research Institute, priority 2017, published 2021)

What was measured:
[1] = biological target: T1, UBA6 Ubiquitin-like modifier-activating enzyme 6 (Homo sapiens, UniProt A0AVT1); experiment: competitive isoTOP-ABPP; format: binding; conditions: for R value (DMSO/fragment) for probe 1 labeling: A0AVT1_K409
T1 construct: isoTOP-ABPP experiments performed in cell lysates (in vitro); endogenous in cells; host or cells: MDA-MB-231 soluble lysate
T1 sequence (A0AVT1 1-1052): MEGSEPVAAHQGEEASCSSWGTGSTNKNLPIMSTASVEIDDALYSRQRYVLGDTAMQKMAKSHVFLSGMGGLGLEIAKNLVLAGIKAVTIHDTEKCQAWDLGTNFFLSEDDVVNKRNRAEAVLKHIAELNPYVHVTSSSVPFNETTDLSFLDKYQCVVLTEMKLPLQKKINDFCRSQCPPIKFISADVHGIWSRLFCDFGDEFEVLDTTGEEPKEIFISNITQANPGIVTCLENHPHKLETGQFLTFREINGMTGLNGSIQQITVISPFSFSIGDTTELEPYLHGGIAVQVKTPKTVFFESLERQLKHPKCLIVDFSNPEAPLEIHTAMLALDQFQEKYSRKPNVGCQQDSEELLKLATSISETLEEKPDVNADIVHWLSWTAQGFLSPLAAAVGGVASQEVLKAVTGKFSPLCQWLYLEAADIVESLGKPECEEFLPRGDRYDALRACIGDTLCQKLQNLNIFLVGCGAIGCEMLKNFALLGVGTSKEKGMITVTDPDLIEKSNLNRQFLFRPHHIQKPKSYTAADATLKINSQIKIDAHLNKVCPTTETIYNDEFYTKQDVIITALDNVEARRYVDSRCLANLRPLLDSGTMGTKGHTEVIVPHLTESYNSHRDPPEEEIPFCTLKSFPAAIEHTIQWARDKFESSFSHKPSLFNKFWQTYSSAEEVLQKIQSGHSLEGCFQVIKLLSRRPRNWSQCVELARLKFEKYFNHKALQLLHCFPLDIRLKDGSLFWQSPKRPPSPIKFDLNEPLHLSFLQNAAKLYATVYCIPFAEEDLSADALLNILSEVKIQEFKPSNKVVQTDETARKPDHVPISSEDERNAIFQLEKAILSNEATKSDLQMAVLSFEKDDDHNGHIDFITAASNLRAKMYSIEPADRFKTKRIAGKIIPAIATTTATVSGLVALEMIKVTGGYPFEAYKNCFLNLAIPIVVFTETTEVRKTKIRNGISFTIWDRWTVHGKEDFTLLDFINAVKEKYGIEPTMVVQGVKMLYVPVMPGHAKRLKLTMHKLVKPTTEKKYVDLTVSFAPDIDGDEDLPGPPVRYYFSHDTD
Summary of the method: (§1)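 Competition format: fragment (50 μM activated ester, 100 μM guanidinylating agent) versus vehicle in lysate, then lysine probe STP-alkyne at 0.1 mM for 1 h. Quantitation by light/heavy TEV-tag MS1 peak areas, reported as R.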

SNX8 Sorting nexin-8 = biological target: T2, SNX8 Sorting nexin-8 (Homo sapiens, UniProt Q9Y5X2); experiment: competitive isoTOP-ABPP; format: binding; conditions: for isoTOP-ABPP reactivity ratio at lysine Q9Y5X2_K316 / isoTOP-ABPP ratio (R) at liganded lysine Q9Y5X2_K316: 50 uM, in vitro; for isoTOP-ABPP reactivity ratio at lysine Q9Y5X2_K316: 231 sol; for isoTOP-ABPP ratio (R) at liganded lysine Q9Y5X2_K316: sol, 231; for isoTOP-ABPP ratio, lysine Q9Y5X2_K316: 50 uM_231_sol_in vitro
T2 construct: endogenous in cells; host or cells: MDA-MB-231 lysate
T2 sequence (Q9Y5X2 1-465): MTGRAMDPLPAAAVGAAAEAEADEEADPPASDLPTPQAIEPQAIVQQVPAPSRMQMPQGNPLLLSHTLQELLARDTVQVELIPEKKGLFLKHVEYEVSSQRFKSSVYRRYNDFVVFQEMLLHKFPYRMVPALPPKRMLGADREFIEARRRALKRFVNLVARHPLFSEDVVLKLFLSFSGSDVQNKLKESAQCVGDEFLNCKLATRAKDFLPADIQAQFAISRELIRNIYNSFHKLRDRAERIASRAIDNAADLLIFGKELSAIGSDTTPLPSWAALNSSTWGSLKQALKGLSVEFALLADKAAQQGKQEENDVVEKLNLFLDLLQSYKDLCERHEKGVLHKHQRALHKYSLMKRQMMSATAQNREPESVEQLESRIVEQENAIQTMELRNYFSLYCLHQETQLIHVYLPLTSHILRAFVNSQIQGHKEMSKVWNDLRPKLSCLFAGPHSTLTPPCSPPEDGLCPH
Summary of the method: as §1

O=C(CCc1cn(-c2ccccc2)nc1-c1ccccc1)Oc1c(F)c(F)c(F)c(F)c1F [fragment 19, Pentafluorophenyl 3-(1,3-diphenyl-1H-pyrazol-4-yl)propanoate]
R value (DMSO/fragment) for probe 1 labeling ([1]; 50 uM, 231 sol, in vitro): 1.5

Cn1cc(CC(=O)Oc2c(F)c(F)c(F)c(F)c2F)c2ccccc21 [fragment 22, Pentafluorophenyl 2-(1-methyl-1H-indol-3-yl)acetate]
R value (DMSO/fragment) for probe 1 labeling ([1]; 50 uM, 231 sol, in vitro): 1.6

COc1cc(CCC(=O)Oc2c(F)c(F)c(F)c(F)c2F)cc(OC)c1OC [fragment 23, Pentafluorophenyl 3-(3,4,5-trimethoxyphenyl)propanoate]
R value (DMSO/fragment) for probe 1 labeling ([1]; 50 uM, 231 sol, in vitro): 1.3

O=C(Oc1c(F)c(F)c(F)c(F)c1F)c1ccc2ccccc2n1 [fragment 25, Pentafluorophenyl quinoline-2-carboxylate]
isoTOP-ABPP reactivity ratio at lysine A0AVT1_K409 ([1]; 50 uM, 231 sol, in vitro): 1.4

O=C(CCc1cn(-c2ccccc2)nc1-c1ccccc1)Oc1ccc([N+](=O)[O-])cc1[N+](=O)[O-] [fragment 29, 2,4-Dinitrophenyl 3-(1,3-diphenyl-1H-pyrazol-4-yl)propanoate]
isoTOP-ABPP reactivity ratio at lysine Q9Y5X2_K316 (SNX8 Sorting nexin-8): 3.4

COc1cc(CCC(=O)Oc2ccc([N+](=O)[O-])cc2[N+](=O)[O-])cc(OC)c1OC [fragment 33, 2,4-Dinitrophenyl 3-(3,4,5-trimethoxyphenyl)propanoate]
isoTOP-ABPP reactivity ratio at lysine Q9Y5X2_K316 (SNX8 Sorting nexin-8): 4.1

O=C(CCc1coc2cc(F)ccc2c1=O)Oc1ccc([N+](=O)[O-])cc1[N+](=O)[O-] [fragment 36, 2,4-Dinitrophenyl 3-(7-fluoro-4-oxo-4H-chromen-3-yl)propanoate]
isoTOP-ABPP ratio (R) at liganded lysine Q9Y5X2_K316 (SNX8 Sorting nexin-8): 3.6

O=C(Oc1ccc([N+](=O)[O-])cc1[N+](=O)[O-])c1ccc(Oc2ccccc2)cc1 [fragment 39, 2,4-Dinitrophenyl 4-phenoxybenzoate]
isoTOP-ABPP ratio (R) at liganded lysine Q9Y5X2_K316 (SNX8 Sorting nexin-8): 1.4

O=C(Oc1ccc([N+](=O)[O-])cc1[N+](=O)[O-])c1ccccc1Nc1cccc(C(F)(F)F)c1 [fragment 40, 2,4-Dinitrophenyl 2-((3-(trifluoromethyl)phenyl)amino)benzoate]
isoTOP-ABPP ratio (R) at liganded lysine Q9Y5X2_K316 (SNX8 Sorting nexin-8): 2.0

CC(C)(C)OC(=O)NCCCC(=O)Oc1ccc([N+](=O)[O-])cc1[N+](=O)[O-] [fragment 41, 2,4-Dinitrophenyl 4-((tert-butoxycarbonyl)amino)butanoate]
isoTOP-ABPP ratio (R) at liganded lysine A0AVT1_K409 ([1]; 50 uM, in vitro, sol, 231): 6.6

O=C(CCc1ccc2c(c1)OCO2)Oc1ccc([N+](=O)[O-])cc1[N+](=O)[O-] [fragment 45, 2,4-Dinitrophenyl 3-(benzo[d][1,3]dioxol-5-yl)propanoate]
isoTOP-ABPP ratio, lysine A0AVT1_K409 ([1]; 50 uM_231_sol_in vitro): 6.3

O=C(ON1C(=O)CCC1=O)c1cc(C(F)(F)F)cc(C(F)(F)F)c1 [fragment 46, 3,5-Bis(trifluoromethyl)benzoic acid NHS ester]
isoTOP-ABPP ratio, lysine Q9Y5X2_K316 (SNX8 Sorting nexin-8): 2.7

NC(=O)c1cc(C(F)(F)F)cc(C(F)(F)F)c1 [fragment 51, reference compound]
isoTOP-ABPP ratio, lysine Q9Y5X2_K316 (SNX8 Sorting nexin-8): 1.2
